Series [1] can be described thus: Pharmacokinetics and oral bioavailability in the mouse. The format is in vivo. The settings on record: for clearance / Vd / AUC / half-life: male, Balb, Nu/Nu, plasma; for clearance / Vd: IV bolus 10 mg/kg; for clearance / Vd / AUC / half-life / C-max (oral): mean; for clearance: read-out: CL (IV bolus); for Vd: read-out: Vdss (IV bolus); for AUC / half-life / C-max (oral): oral 10 mg/kg; for half-life: read-out: T½ (oral) (converted); for F on AUC: oral vs IV dose-normalized AUC, 10 mg/kg.
Protocol: A single administration at the dose of 10 mg/kg was given and three male animals for each route were used. […] After capping and vortex mixing, the plate was centrifuged for 15 minutes at 4000 rpm. The supernatant was considered as final extract and injected onto the LC-MS-MS system (UPLC system: Waters Acquity using BEH C18 50*2.1 mm 1.7 μm analytical column; MS instrument: Waters TQD equipped with Electro-Spray source operating in positive ion mode). Lower limit of quantification is 5.0 ng/mL, upper limit of quantification is 5000 ng/mL. Non-compartmental method (linear trapezoidal rule and linear regression analysis of natural log-transformed plasma concentrations vs. time data) was used. Absolute bioavailability (F) was calculated from the ratio of average oral to IV (intravenous) dose-normalized plasma AUC (area under curve) values.

Another series has as its target PARP-3 (Homo sapiens (Human), UniProt Q9Y6F1). The settings on record: read-out: PARP-3 (DC50 μM); probe P1.
Series [2] deals with Capan-1 human pancreatic cancer tumors. The settings on record: cpd 3 200 mg/kg oral days 1-12 + temozolomide 50 mg/kg oral days 3-8; time to reach 1 g.
Protocol: Fragments of Capan-1 human pancreatic cancer tumors were implanted subcutaneously. […] Each group included seven animals. The treatment started one day after randomization. Compounds of formula (I) were administered by oral route as a methocel suspension. Tumor dimension was measured regularly by calipers during the experiments and tumor mass was calculated as described in Simeoni M. et al., Cancer Res 2004, 64, 1094-1101.
Temozolomide was administered by oral route at the dose of 50 mg/kg on days 3, 4, 5, 6, 7 and 8. Tumor growth and body weight were measured every 3 days. Tumor growth was assessed by caliper. The two diameters were recorded and the tumor weight was calculated according to the following formula: length (mm)×width^2/2. […] This delay (T−C value) was defined as the difference of time (in days) required for the treatment group (T) and the control group (C) tumors to reach a predetermined size (1 g). Toxicity was evaluated on the basis of body weight reduction and animal survival rate.
For the next series, the target named is PARP-2 (Homo sapiens (Human), UniProt Q9UGN5). The note with it: probe P1; for DC50: read-out: PARP-2 (DC50 μM); for Kd: read-out: PARP-2 (Kd μM).
PARP-2, sequence (Q9UGN5 whole entry): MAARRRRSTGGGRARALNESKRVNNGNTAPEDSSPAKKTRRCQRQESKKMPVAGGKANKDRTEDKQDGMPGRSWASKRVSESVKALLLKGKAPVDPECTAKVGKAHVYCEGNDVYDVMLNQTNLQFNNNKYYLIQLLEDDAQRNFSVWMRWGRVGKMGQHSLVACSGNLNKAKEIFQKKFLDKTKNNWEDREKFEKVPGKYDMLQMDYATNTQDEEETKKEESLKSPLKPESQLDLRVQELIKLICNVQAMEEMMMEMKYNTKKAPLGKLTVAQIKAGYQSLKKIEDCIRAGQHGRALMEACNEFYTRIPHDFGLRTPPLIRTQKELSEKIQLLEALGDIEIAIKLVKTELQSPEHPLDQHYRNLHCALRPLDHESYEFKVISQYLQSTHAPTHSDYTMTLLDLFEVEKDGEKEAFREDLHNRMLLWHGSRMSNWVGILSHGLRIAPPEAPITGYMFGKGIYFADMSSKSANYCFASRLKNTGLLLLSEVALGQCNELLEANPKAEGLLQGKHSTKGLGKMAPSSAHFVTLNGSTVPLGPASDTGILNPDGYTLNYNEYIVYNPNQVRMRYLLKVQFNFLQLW
For a further series, the target named is PARP-1 (Homo sapiens (Human), UniProt P09874). The note with it: for DC50: read-out: PARP-1 (DC50 μM), probe P1, <0.25 = assay sensitivity limit; for Kd: read-out: PARP-1 (Kd μM), probe P3, <0.01 = assay sensitivity limit.
PARP-1, sequence (P09874 whole entry): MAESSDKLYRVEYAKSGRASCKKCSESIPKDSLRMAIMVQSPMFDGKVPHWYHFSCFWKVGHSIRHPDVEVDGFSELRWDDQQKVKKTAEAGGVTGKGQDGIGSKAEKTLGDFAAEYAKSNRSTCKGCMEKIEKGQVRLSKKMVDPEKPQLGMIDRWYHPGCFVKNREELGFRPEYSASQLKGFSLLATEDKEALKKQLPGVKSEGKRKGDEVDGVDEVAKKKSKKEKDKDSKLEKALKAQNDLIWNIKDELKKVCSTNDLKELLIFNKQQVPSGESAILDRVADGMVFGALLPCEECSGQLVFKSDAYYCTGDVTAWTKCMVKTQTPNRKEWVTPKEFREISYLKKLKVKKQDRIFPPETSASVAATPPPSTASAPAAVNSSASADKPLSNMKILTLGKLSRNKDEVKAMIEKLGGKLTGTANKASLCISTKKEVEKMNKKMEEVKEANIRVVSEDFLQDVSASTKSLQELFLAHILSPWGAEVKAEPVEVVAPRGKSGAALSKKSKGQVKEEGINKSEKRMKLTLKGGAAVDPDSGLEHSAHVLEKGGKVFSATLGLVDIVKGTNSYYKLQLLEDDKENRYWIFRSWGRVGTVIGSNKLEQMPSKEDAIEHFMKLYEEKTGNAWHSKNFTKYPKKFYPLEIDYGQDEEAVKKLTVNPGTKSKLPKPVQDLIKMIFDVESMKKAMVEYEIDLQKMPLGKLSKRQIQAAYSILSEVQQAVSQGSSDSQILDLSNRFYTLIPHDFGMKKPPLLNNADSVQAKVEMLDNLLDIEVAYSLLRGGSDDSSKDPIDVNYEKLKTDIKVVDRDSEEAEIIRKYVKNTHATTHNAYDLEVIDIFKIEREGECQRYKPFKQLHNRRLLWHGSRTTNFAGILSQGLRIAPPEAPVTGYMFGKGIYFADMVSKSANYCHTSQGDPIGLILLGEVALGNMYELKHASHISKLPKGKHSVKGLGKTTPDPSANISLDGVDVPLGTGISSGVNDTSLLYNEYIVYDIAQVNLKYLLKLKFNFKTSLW
For series [3], the system named is hydrogen peroxide induced PAR formation in HeLa cells. Description: cells. The note with it: Homo sapiens, read-out: PAR assay (IC50 μM).
Protocol: Cellular activity of PARP-1 inhibitors was assessed by measuring the inhibition of the hydrogen peroxide induced PAR formation in HeLa cells (ECACC). Cellular PAR levels were measured by immunocytochemistry, and quantified using an ArrayScan vTi instrument (Cellomics Thermo Scientific).
Studies were performed as follows: 6000 cells/well were seeded in 96 well plates (Perkin Elmer) in MEM/10% FCS and incubated for 24 hours at 37° C., 5% carbon dioxide. Test compounds were then added at the required concentration for 30 minutes. DNA damage was then induced adding hydrogen peroxide at the concentration of 0.1 mM for 15 minutes. Concentration curves were prepared in MEM/10% FCS from compound stocks in DMSO, and final DMSO concentration was 0.002% (v/v). Duplicate wells for each concentration point were prepared with a typical highest compound concentration of 20 μM and serial dilution 1:3. Plates were dried and fixed adding cold methanol-acetone (70:30) solution for 15 minutes at room temperature, fixing solution was aspired and wells were air dried for 5 minutes and then dehydrated in PBS. Non-specific binding sites were blocked by incubating wells for 30 minutes in PBS containing 5% (w/v) FBS 0.05% tween20. Wells were then incubated for 1 hour at room temperature in PBS containing anti PAR mouse monoclonal antibody (Anti-PAR, Mouse mAb 10H, Tulip Cat N° 1020) diluted 1:200 in blocking solution. After 3 washes in PBS, wells incubated in PBS (w/v) 5% FBS 0.05% Tween20 containing 2 μg/mL Cy2-conjugated Goat anti mouse secondary antibody (Amersham Pharmacia Biotech cat. N° PA 42002) (Absorption maximum 489 nm fluorescence maximum 506 nm) and 1 μg/mL DAPI (Absorption maximum 359 nm fluorescence maximum 461 nm) (4′,6-diamidino-2-phenyindole dilactate) (Sigma cat. N° D9564), a high sensitivity dye for nucleic acid staining. After washing further 3 times in PBS, cellular PAR immunoreactivity was assessed using the ArrayScan vTi instrument, with a Zeiss 10×0.5 N.A. objective, and applying the Cytotoxicity. V3 algorithm (Cellomics/Thermo Fisher) with a XF100 filter. At least 10 fields, corresponding to at least 900 cells, were read for each well.
X is the logarithm of concentration, IC50 is the response; IC50 starts at bottom and goes to top with a sigmoid shape.
For series [4], the system named is ovarian cancer patients with confirmed BRCA-1 mutations. The settings on record: phase I, monotherapy, preliminary data; cited from earlier work.

PARP-3, sequence (Q9Y6F1 whole entry): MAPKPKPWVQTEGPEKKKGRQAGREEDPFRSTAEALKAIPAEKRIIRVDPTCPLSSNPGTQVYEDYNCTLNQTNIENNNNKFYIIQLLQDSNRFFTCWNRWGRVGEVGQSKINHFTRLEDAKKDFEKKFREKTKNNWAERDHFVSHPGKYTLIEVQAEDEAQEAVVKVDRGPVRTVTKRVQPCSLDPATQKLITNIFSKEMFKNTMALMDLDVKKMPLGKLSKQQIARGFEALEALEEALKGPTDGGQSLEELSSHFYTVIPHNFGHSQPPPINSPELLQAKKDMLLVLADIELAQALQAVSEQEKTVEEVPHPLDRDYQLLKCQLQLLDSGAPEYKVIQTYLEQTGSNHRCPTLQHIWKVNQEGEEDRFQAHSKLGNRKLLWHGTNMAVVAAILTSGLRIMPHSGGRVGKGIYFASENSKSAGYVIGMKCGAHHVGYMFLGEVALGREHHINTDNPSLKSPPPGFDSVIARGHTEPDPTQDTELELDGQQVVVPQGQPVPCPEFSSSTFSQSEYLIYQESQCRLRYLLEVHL
Protocol for PARP-1: (§1) Affinity evaluation of the tested compounds and their selectivity with respect to the different PARP isoforms of interest was assessed in a displacement assay.
(§2) a) providing a reaction mixture containing:
(§3) the PARP protein isoform under investigation,
a compound of formula (IP):
(§4) wherein R11 is hydrogen or a methyl group, B is (CH2)n—NH group wherein n is 2 to 6; m is 0 or 1 and X^− is a counterion, and
serial dilutions of the test compound;
(§5) b) comparing the polarization signal generated in the absence of the test compound with the one generated in the presence of different concentrations of the test compound, and
(§6) c) evaluating the ability of the test compound to displace the compound of formula (IP) as defined above indicated from a decreased fluorescence polarization level.
(§7) The 5H-phenanthridin-6-one-derived probe (IP) was selected for its capability of binding to the PARP proteins, both encompassing full-length native proteins and fragment thereof.
(§8) The polarization signal can be measured, e.g., by a plate reader such as the Saphire2 (Tecan). Data analysis was performed, e.g., by using the Dynafit software. Displacement data were also fitted, e.g., by using Excel spreadsheet (Microsoft Inc. Seattle, USA) to a four parameter logistic model (4PL), or Hill-Slope model. The assay was used to test compounds of the present invention. […] Specific probes of formula (IP) used in the assay are: • P1. 9-Dimethylamino-11,11-dimethyl-1-(3-{methyl-[(6-oxo-5,6-dihydro-phenanthridin-2-ylcarbamoyl)-methyl]-carbamoyl}-propyl)-2,3,4,11-tetrahydro-naphtho[2,3-g]quinolinium trifluoroacetate; • P2. 9-Dimethylamino-11,11-dimethyl-1-[3-(3-{[(6-oxo-5,6-dihydro-phenanthridin-2-ylcarbamoyl)-methyl]-amino}-propylcarbamoyl)-propyl]-2,3,4,11-tetrahydro-naphtho[2,3-g]quinolinium trifluoroacetate; • P3. 9-Dimethylamino-11,11-dimethyl-1-[3-(6-{[(6-oxo-5,6-dihydro-phenanthridin-2-ylcarbamoyl)-methyl]-amino}-hexylcarbamoyl)-propyl]-2,3,4,11-tetrahydro-naphtho[2,3-g]quinolinium trifluoroacetate.
Protocol for PARP-2: as §1, §2, §3
a compound of formula (IP):
as §4
serial dilutions of the test compound;
as §5, §6, §7, §8
Protocol for PARP-3: as §1, §2, §3
a compound of formula (IP):
as §4
serial dilutions of the test compound;
as §5, §6, §7, §8

As usually defined, the AUC is concentration integrated over time. For `NC(=O)c1cccc2[nH]n(C3CCN(C4CCCCC4)CC3)c(=O)c12` [Compound 3, 2-(1-cyclohexylpiperidin-4-yl)-3-oxo-2,3-dihydro-1H-indazole-4-carboxamide], in series [1], the clearance came out at 17.8 mL/min/kg, the Vd turned out to be 1.3 L/kg, the AUC was found to be 14.3 µM·h and the half-life was 1.77 h. For the same compound, in series [1], the “C-max (oral)” value is 5.6 µM and the “F on AUC” value was found to be 67%. Moreover, at PARP-3, the DC50 is above 10 µM. Besides, in series [2], the “T-C (days)” value was “superior”. The DC50 at PARP-2 is above 10 µM.
As usually defined, the Kd is a measure of binding affinity in units of concentration. In general, IC50 refers to the point on the concentration scale where inhibition reaches its midpoint. As for `Cn1c2cccc(C(N)=O)c2c(=O)n1C1CCN(C2CCC(F)(F)CC2)CC1` [Compound 6, 2-[1-(4,4-difluorocyclohexyl)piperidin-4-yl]-1-methyl-3-oxo-2,3-dihydro-1H-indazole-4-carboxamide], in series [1], the clearance is 52.7 mL/min/kg, the Vd amounted to 2.9 L/kg, the AUC was 3.87 µM·h and the half-life is 1.13 h. Moreover, in series [1], the “C-max (oral)” value was 3.07 µM and the “F on AUC” value turned out to be 49%. Besides, the DC50 at PARP-3 was determined as 2.34 µM. Also, at PARP-1, the DC50 was below 0.25 µM and the Kd is below 0.01 µM. In series [3], the IC50 was 0.1 µM. Further, at PARP-2, the DC50 turned out to be 3.95 µM and the Kd is 1.88 µM.
For `CN1CCC(n2[nH]c3cccc(C(N)=O)c3c2=O)CC1` [Compound 8, 2-(1-methylpiperidin-4yl)-3-oxo-2,3-dihydro-1H-indazole-4-carboxamide], the values for the DC50 on PARP-3, at PARP-1 and at PARP-2 were 2.75 µM, below 0.25 µM and below 0.25 µM, respectively. Moreover, the Kd at PARP-1 came to 0.14 µM; on PARP-2, 0.04 µM. Moreover, the concentration for half-maximal inhibition (IC50) in series [3] stood at 0.6 µM.
Turning to `Cn1c2cccc(C(N)=O)c2c(=O)n1C1CCNCC1` [Compound 9, 1-methyl-3-oxo-2-(piperidin-4-yl)-2,3-dihydro-1H-indazole-4-carboxamide], the values for the DC50 at PARP-3, at PARP-1 and on PARP-2 were 0.45 µM, below 0.25 µM and below 0.25 µM, respectively. Moreover, the Kd at PARP-1 amounted to 0.014 µM; on PARP-2, 0.14 µM. For the same compound, the IC50 in series [3] is 0.05 µM.
`NC(=O)c1cccc2[nH]n(C3CCN(Cc4cccs4)CC3)c(=O)c12` [Compound 62, 3-oxo-2-[1-(thiophen-2-ylmethyl)piperidin-4-yl]-2,3-dihydro-1H-indazole-4-carboxamide]: the DC50 at PARP-3 is 0.46 µM; on PARP-1, below 0.25 µM; on PARP-2, above 10 µM. Moreover, the Kd on PARP-1 was 0.022 µM. For the same compound, the IC50 in series [3] amounted to 0.07 µM.
In the case of `O=C(c1cc(Cc2n[nH]c(=O)c3ccccc23)ccc1F)N1CCN(C(=O)C2CC2)CC1` [Olaparib], the partial responses in series [4] is listed as 4 out of 10.

The record behind these values is patent US9073893B2, “3-Oxo-2,3-dihydro-1H-indazole-4-carboxamide derivatives as PARP-1 inhibitors” (priority 2011, dated 2015).
